Measurements taken from ChEMBL document CHEMBL1123275, “Synthesis and renal vasodilator activity of some dopamine agonist 1-aryl-2,3,4,5-tetrahydro-1H-3-benzazepine-7,8-diols: halogen and methyl analogues of fenoldopam” (J Med Chem, 1986).
pEC50, pIC50: −log10 of the molar value. The source made the active and inactive calls. No cut-off for these calls is given here.

Legend:
Rattus norvegicus [1] = species on record: Rattus norvegicus; assay: (§1) In vitro dose stimulating D-1 adenylate cyclase in rat caudate nuclei; No significant activity at 10 uM; type: functional
Rattus norvegicus [2] = species on record: Rattus norvegicus; assay: In vitro inhibition of dopamine stimulated production of [14C]cAMP from [14C]-ATP in homogenates of rat caudate; No significant activity at 10 uM; type: functional
Rattus norvegicus [3] = species on record: Rattus norvegicus; assay: as §1; type: functional; remark: listed apart in the source
Rattus norvegicus [4] = species on record: Rattus norvegicus; assay: In vitro dose stimulating D-1 adenylate cyclase in rat caudate nuclei; type: functional, organism-based
Rattus norvegicus [5] = assay: Compound was tested for its CNS activity in vivo in SNx rats with 6-hydroxydopamine induced lesions after ip administration; type: functional, Central nervous system
Rattus norvegicus [6] = species on record: Rattus norvegicus; assay: In vitro dose stimulating D-1 adenylate cyclase in rat caudate nuclei at 10 uM; type: functional
Rattus norvegicus [7] = species on record: Rattus norvegicus; assay: In vitro inhibition of dopamine stimulated production of [14C]-cAMP from [14C]-ATP in homogenates of rat caudate; type: functional
Canis familiaris [8] = assay: Renal vasodilator activity in anesthetized dogs; I= no significant activity at 300 ug/kg/min; type: functional, organism-based; settings: Canis lupus familiaris
Rattus norvegicus [9] = species on record: Rattus norvegicus; assay: In vitro inhibition of dopamine stimulated production of [14C]cAMP from [14C]-ATP in homogenates of rat caudate at the concentration of 10 uM; type: functional
Canis familiaris [10] = assay: cardiovascular activity was determined in anesthetized dogs.(Mean arterial blood pressure); type: functional; settings: Canis lupus familiaris
Canis familiaris [11] = species on record: Canis familiaris; assay: Effective dose against Iliac vascular resistance (IVR); type: functional; settings: Canis lupus familiaris
Canis familiaris [12] = species on record: Canis familiaris; assay: Maximum percent decrease in renal vascular resistance.; type: functional, Canis lupus familiaris
Canis familiaris [13] = assay: Renal vasodilator activity was determined in anesthetized dogs; type: functional; settings: Canis lupus familiaris
Canis familiaris [14] = assay: cardiovascular activity was determined in anesthetized dogs.(Heart rate ); type: functional; settings: Canis lupus familiaris
Rattus norvegicus [15] = assay: Compound was tested for its CNS activity in vivo by determining drug-induced rotation in rats with 6-hydroxydopamine induced lesions of the SNx rats after ip administration measured as dose-turns; 10-no significant activity; type: functional, organism-based; settings: Central nervous system
Canis familiaris [16] = assay: Renal vasodilator activity in anesthetized dogs; no significant activity at 1000 ug/kg/stat; type: functional, organism-based; settings: Canis lupus familiaris
Rattus norvegicus [17] = assay: Compound was tested for its CNS activity in vivo in SNx rats with 6-hydroxydopamine induced lesions after ic administration; type: functional, Central nervous system
Canis familiaris [18] = assay: Cardiovascular activity was determined in anesthetized dogs.(Mean arterial blood pressure); type: functional; settings: Canis lupus familiaris, Artery

SMILES: Br.Cc1c(O)c(O)cc2c1C(c1ccc(O)cc1)CNCC2 (configuration not stated)
- EC50 (Rattus norvegicus [1]): Not Active
- inhibition (Rattus norvegicus [2]): inactive

SMILES: Cc1c(O)c(O)c(Cl)c2c1C(c1ccc(O)cc1)CNCC2 (configuration not stated)
- inhibition (Rattus norvegicus [2]): inactive
- Stimulation (Rattus norvegicus [3]): inactive

SMILES: Br.Cc1c(O)c(O)cc2c1CCNCC2c1ccccc1 (configuration not stated)
- pEC50 (Rattus norvegicus [4]): 7.00
- RD500 (Rattus norvegicus [5]): 1.28 mg/kg

SMILES: Br.Cc1c(O)c(O)cc2c1CCN(C)CC2c1ccccc1 (configuration not stated)
- Stimulation (Rattus norvegicus [6]): 20%
- pIC50 (Rattus norvegicus [7]): 6.36
- Activity (Canis familiaris [8]): inactive
- RD500 (Rattus norvegicus [5]): 0.05 mg/kg

SMILES: CS(=O)(=O)O.Cc1c(O)c(O)cc2c1CCNCC2c1ccc(O)cc1 (configuration not stated)
- inhibition (Rattus norvegicus [9]): 50%
- Stimulation (Rattus norvegicus [6]): 30%
- ED20 (Canis familiaris [10]): 6.06 mg/kg
- ED30 (Canis familiaris [11]): 6.06 mg/kg
- Decrease (Canis familiaris [12]): 41%
- ED15 (Canis familiaris [13]): 0.0028 mg/kg
- ED20 (Canis familiaris [14]): 6.06 mg/kg

SMILES: Br.Oc1cccc(C2CNCCc3c2cc(O)c(O)c3Cl)c1 (configuration not stated)
- ED20 (Canis familiaris [10]): 2.12 mg/kg
- RD500 (Rattus norvegicus [15]): inactive
- ED30 (Canis familiaris [11]): 0.0119 mg/kg
- Decrease (Canis familiaris [12]): 49%
- ED15 (Canis familiaris [13]): 0.00035 mg/kg
- ED20 (Canis familiaris [14]): 0.36 mg/kg

SMILES: CN1CCc2cc(O)c(O)cc2C(c2ccccc2)C1.Cl (configuration not stated)
- Stimulation (Rattus norvegicus [6]): 20%
- Activity (Canis familiaris [16]): inactive
- RD500 (Rattus norvegicus [17]): 0.06 ug rat-1
- pIC50 (Rattus norvegicus [7]): 6.20
- RD500 (Rattus norvegicus [5]): 0.1 mg/kg

SMILES: Br.Oc1ccc(C2CNCCc3cc(O)c(O)c(Cl)c32)cc1 (configuration not stated)
- EC50 (Rattus norvegicus [1]): Not Active
- inhibition (Rattus norvegicus [2]): inactive

SMILES: Cc1c(O)c(O)c(Cl)c2c1CCNCC2c1ccc(O)cc1.Cl (configuration not stated)
- inhibition (Rattus norvegicus [9]): 29%
- ED20 (Canis familiaris [10]): 6.09 mg/kg
- ED30 (Canis familiaris [11]): 6.09 mg/kg
- Decrease (Canis familiaris [12]): 42%
- ED15 (Canis familiaris [13]): 0.03 mg/kg
- ED20 (Canis familiaris [14]): 6.09 mg/kg
- Stimulation (Rattus norvegicus [3]): inactive

SMILES: CN1CCc2c(cc(O)c(O)c2Cl)C(c2ccc(O)cc2)C1 (configuration not stated)
- pEC50 (Rattus norvegicus [4]): 4.66
- pIC50 (Rattus norvegicus [7]): 5.85

SMILES: NCCc1ccc(O)c(O)c1 [DOPAMINE]
- ED30 (Canis familiaris [11]): 0.151 mg/kg
- RD500 (Rattus norvegicus [17]): 0.1 ug rat-1
- ED20 (Canis familiaris [18]): 0.378 mg/kg
- Decrease (Canis familiaris [12]): 43%
- ED15 (Canis familiaris [13]): 0.0035 mg/kg
- ED20 (Canis familiaris [14]): 0.378 mg/kg

SMILES: Cl.Oc1ccc(C2CNCCc3c(Cl)c(O)c(O)c(Cl)c32)cc1 (configuration not stated)
- pEC50 (Rattus norvegicus [4]): 5.59
- ED20 (Canis familiaris [10]): 6.2 mg/kg
- RD500 (Rattus norvegicus [15]): inactive
- ED30 (Canis familiaris [11]): 6.2 mg/kg
- Decrease (Canis familiaris [12]): 41%
- ED15 (Canis familiaris [13]): 0.62 mg/kg
- ED20 (Canis familiaris [14]): 6.2 mg/kg

SMILES: Cc1c(O)c(O)c(C)c2c1CCNCC2c1ccc(O)cc1 (configuration not stated)
- inhibition (Rattus norvegicus [2]): inactive
- Stimulation (Rattus norvegicus [3]): inactive

SMILES: CS(=O)(=O)O.Oc1ccc(C2CNCCc3c2cc(O)c(O)c3Cl)cc1 (configuration not stated) [FENOLDOPAM MESYLATE]
- pEC50 (Rattus norvegicus [4]): 7.32
- ED20 (Canis familiaris [10]): 1.82 mg/kg
- RD500 (Rattus norvegicus [15]): inactive
- ED30 (Canis familiaris [11]): 1.82 mg/kg
- Decrease (Canis familiaris [12]): 59%
- ED15 (Canis familiaris [13]): 0.0003 mg/kg
- ED20 (Canis familiaris [14]): 1.82 mg/kg
- RD500 (Rattus norvegicus [5]): 0.5 ug rat-1
